The test system of this assay is CEM cells HIV-1 protection, formazan growth assay. The assay can be described thus: NCI AIDS Antiviral Assay. To be noted: for IC50: measured here: growth of uninfected CEM cells. A digest of the protocol: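 Protection of CEM cells against HIV-1 measured as cell growth via soluble formazan read-out, with five concentrations tested on both infected and uninfected cells; failure to protect may reflect toxicity.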

Active and inactive are the calls of the source.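 The calls were made as follows: active = compounds giving half or more protection of infected cells from virus-caused growth loss, again on retest; inactive = the rest.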 Bounds are passed on as bounds.

Turning to `O=C1NC(=O)C(CC(C(=O)C(=O)Nc2ccccc2Cl)C(=O)c2ccc3ccccc3c2)C(=O)N1` (stereo not given), the EC50 (as a rule, the concentration needed to bring the measured effect to its halfway point) is more than 38 µM and the IC50 (usually the concentration at which inhibition is half-maximal) is more than 38 µM.

In the case of `COC(=O)/C=C\C(C#N)(C#N)N=Cc1cc(Br)cs1`, the EC50 was more than 2 µM and the IC50 came out at 0.676 µM.

On to `CSc1c(C(C)=O)c(O)n(-c2ccc(C)cc2)c(=O)c1C#N`, for which the EC50 is more than 200 µM and the IC50 worked out at 63.1 µM.

`O=C(N=Nc1c(O)[nH]c2ccccc12)C(O)(c1ccccc1)c1ccccc1`: the EC50 is more than 200 µM and the IC50 was found to be 39.8 µM.

`O=C1OC(c2ccccc2)c2cccnc21` (stereo not given): the EC50 was more than 1170 µM and the IC50 is more than 1170 µM.

Turning to `CC(=O)N(C)c1ccc2c(ccc[n+]2[O-])c1[N+](=O)[O-]`, the EC50 is more than 955 µM and the IC50 is more than 955 µM.

`O=S(=O)(O)c1ccc(O)c(N=Nc2ccc(/C=C/c3ccc(N=Nc4cc(S(=O)(=O)O)ccc4O)cc3S(=O)(=O)O)c(S(=O)(=O)O)c2)c1`: the EC50 was more than 200 µM and the IC50 was found to be 126 µM.

For the molecule `Cc1cccc(NC(=O)C(=O)C(C2OC(=O)c3ccccc32)[N+](=O)[O-])c1C` (stereo not given), the result was inactive.

In the case of `C=C1C(=O)OC2CC(C)C3C(OC(C)=O)CC(OC(C)=O)C3(C)CC12` (stereo not given), the EC50 was more than 97.7 µM and the IC50 stood at 6.76 µM.

`O=c1c2ccccc2n2n1Cc1ccccc1C2`: the EC50 was more than 200 µM and the IC50 worked out at 102 µM.

For the molecule `Cc1cn(C2CC(N)C(C(=O)NCC(=O)O)O2)c(=O)[nH]c1=O` (stereo not given), the EC50 was more than 200 µM and the IC50 was more than 200 µM.

Consider `O=C1CC(=O)NP(=O)(Oc2ccccc2)N1`, for which the EC50 was more than 1050 µM and the IC50 is more than 1050 µM.

As to `CC(=O)OCc1cc(=O)n2c([nH]c3ccccc32)c1C#N`, the EC50 was more than 20 µM and the IC50 was more than 20 µM.

`O=C(NC(CCCCN1C(=O)c2ccccc2C1=O)P(=O)(Oc1ccccc1)Oc1ccccc1)OCc1ccccc1` (stereo not given): the EC50 is more than 200 µM and the IC50 stood at 95.5 µM.

As to `COc1ccc(C(=O)/C=C/c2ccc3c(c2)OCO3)c(O)c1`, the EC50 was more than 200 µM and the IC50 was 81.3 µM.

`CC12CCC(C(S(=O)(=O)Nc3ccccc3)C1=O)C2(C)C` (stereo not given): the EC50 was more than 200 µM and the IC50 was determined as 138 µM.

Regarding `Cc1occc1C(=S)Nc1ccc(Cl)c(C(=O)OCC(F)(F)F)c1`, the EC50 was 0.0195 µM and the IC50 came to 19.1 µM.

Consider `COc1ccc([C@H]2CC(=O)N3CCCC3N2)cc1` (stereo not given in full), for which the EC50 is more than 200 µM and the IC50 was more than 200 µM.

Regarding `Cc1ccc(N=Nc2c(C)n(-c3ccc4scnc4c3)c(=S)n(-c3ccccc3)c2=O)cc1`, the EC50 is more than 75.9 µM and the IC50 is more than 75.9 µM.

For `O=C1C(Cl)C(c2cccc([N+](=O)[O-])c2)N1n1cnc2ccccc2c1=O` (stereo not given), the EC50 is more than 10 µM and the IC50 is more than 10 µM.

`CC1=NN(C(=O)CC(=O)Nc2cccc(C)c2)C(=O)C1N=Nc1ccc(C(=O)O)cc1` (stereo not given): the EC50 is more than 200 µM and the 50% inhibitory concentration (IC50) was found to be 28.2 µM.

As to `O=c1cc(Cl)c(=O)n(-c2ccccc2)[nH]1`, the EC50 was more than 1120 µM and the IC50 was 1070 µM.

Consider `CCCCCCCCCCC(c1cc(Cl)c(O)c(C(=O)O)c1)c1cc(Cl)c(O)c(C(=O)O)c1`, for which the EC50 is more than 1480 µM and the concentration for half-maximal inhibition (IC50) is 79.4 µM.

`O=C(N/C(=C\c1cccc([N+](=O)[O-])c1)c1nc2c3c(ccc2[nH]1)C(=O)c1ccccc1C3=O)c1ccccc1`: the result was inactive.

As for `Cc1cc(-c2c(Br)cc(C(=O)O)n2C)on1`, the EC50 was more than 200 µM and the IC50 was more than 200 µM.

Turning to `CC(=N/NC(=S)N1CCCCC1)/C(=N\NC(=S)N1CCCCC1)c1ccccc1`, the EC50 was more than 200 µM and the IC50 is 3.55 µM.

As for `NCCS/C=C\C(=O)O`, the EC50 is more than 1700 µM and the IC50 is more than 1700 µM.

Turning to `CCc1cccc(CC)c1NC(=S)N/C=C(\C#N)S(=O)(=O)c1ccc(C)cc1`, the EC50 was more than 200 µM and the IC50 was more than 200 µM.

As for `CCOC(=O)C1C(=O)CC(O)(OCC)C(C(=O)OCC)C1c1ccc(OC)cc1` (stereo not given), the EC50 was more than 200 µM and the IC50 is more than 200 µM.

Consider `ClCCCN1CCN(CCCl)CC1`, for which the EC50 was more than 832 µM and the IC50 turned out to be 21.4 µM.

Consider `Cc1ccc(C2SCC(=O)N2c2ccc(-n3c(-c4ccccc4)nc4ccccc4c3=O)cc2)cc1` (stereo not given), for which the EC50 was more than 200 µM and the IC50 came out at 10.7 µM.

On to `CC(C)(C)OC(=O)[N+](=N)C(=O)C1CCC(=O)N1C(=O)OCc1ccccc1` (stereo not given), for which the EC50 is more than 200 µM and the IC50 is more than 200 µM.

Take `O=C(O)c1ccc(CS(=O)c2ccccc2)c([N+](=O)[O-])c1` (stereo not given): the outcome was inactive.

Regarding `COc1ccc(C(C)(C)c2cc3c(cc2OC)OCO3)cc1`, the EC50 was more than 45.7 µM and the IC50 was determined as 0.0316 µM.

On to `CN(C)C(=S)Nc1nnc(Nc2ccccc2)s1`, for which the outcome was inactive.

Turning to `COc1ccc2c(c1)[n+]([O-])c(-c1ccc([N+](=O)[O-])cc1)c(N)[n+]2[O-]`, the result was inactive.

Consider `CC(=O)OCc1ccc(-c2nc(C#N)c(N)o2)o1`, for which the EC50 was more than 200 µM and the IC50 is more than 200 µM.

Take `Cc1cc(NC(=O)Nc2ccc(N=Nc3cc(S(=O)(=O)[O-])c4cccc(S(=O)(=O)[O-])c4c3)c(C)c2)ccc1N=Nc1cc(S(=O)(=O)[O-])c2cccc(S(=O)(=O)[O-])c2c1.[Ga]`: the EC50 is more than 75.9 µM and the IC50 stood at 13.5 µM.

As for `Cc1cccc(C)c1NC(=S)NNC(=O)NNC(=S)Nc1c(C)cccc1C`, the EC50 was more than 200 µM and the IC50 is more than 200 µM.

On to `CCN(CC)CCn1c(C)nc2c1C(=O)c1nc(C)n(CCN(CC)CC)c1C2=O`, for which the EC50 is more than 200 µM and the IC50 is 5.75 µM.

`COc1ccc(-c2csc(=Nc3ccccc3)n2CC(O)c2ccc([N+](=O)[O-])cc2)cc1` (stereo not given): the EC50 was more than 200 µM and the IC50 turned out to be 38 µM.

Consider `CCC1CCc2c(OC)ccc(OCC(=O)O)c2C1=O` (stereo not given), for which the result was inactive.

On to `CN1CCCC2[C@@H]3CCC4c5nonc5CC[C@]4(C)C3CC[C@@]21C` (stereo not given in full), for which the EC50 was more than 55 µM and the IC50 was more than 55 µM.

As to `CC(=O)Nc1c(I)c(NC(C)=O)c(I)c(C(=O)O)c1I`, the outcome was inactive.

Consider `C/C(CC(=O)Nc1ccc(NC(=O)/C(C)=N/NS(=O)(=O)c2ccc(C)cc2)cc1)=N\NS(=O)(=O)c1ccc(C)cc1`, for which the EC50 is more than 158 µM and the IC50 is more than 158 µM.

Consider `CCCCCCCCCCCCCCCCCCNC(=O)c1ccccc1[Se][Se]c1ccccc1C(=O)NCCCCCCCCCCCCCCCCCC`, for which the EC50 is more than 0.794 µM and the IC50 was more than 0.794 µM.

Turning to `COc1ccc2c(c1)OC[C@@H]1c3cc(OC)c(OCc4ccccc4)cc3O[C@H]21`, the EC50 is 6.61 µM and the IC50 is more than 100 µM.

Turning to `NS(=O)(=O)c1cc[n+]([O-])c2ccccc12`, the EC50 was more than 200 µM and the IC50 is 55 µM.

In the case of `O=C(NC1C2CC3CC(C2)CC1C3)/C(Cl)=C1/Sc2ccccc2NC1=O` (stereo not given), the EC50 is more than 5.13 µM and the IC50 is more than 5.13 µM.

For `CC(=O)Nc1nnc(S(C)(=O)=O)s1`, the EC50 was more than 1120 µM and the IC50 turned out to be 851 µM.

`COC1OOC(OC)c2ccccc2-c2ccccc21` (stereo not given): the EC50 is more than 200 µM and the IC50 came out at 12.3 µM.

Values taken from PubChem BioAssay AID179 (DTP/NCI, 2004).
